According to publication PMC10056443, “Derivatives of Amaryllidaceae Alkaloid Ambelline as Selective Inhibitors of Hepatic Stage of Plasmodium berghei Infection In Vitro” (Pharmaceutics, 2023):
Where two headings read alike, the source gives them in different places.

Assays:
[1] = test system: resistant Dd2 P. falciparum strain; details: cited from earlier work
Plasmodium = test system: Plasmodium; set-up: method as in PMID 29243039; details: tested previously, cited from earlier work
[2] = test system: chloroquine-sensitive 3D7 strain; set-up: method as in doi:10.21577/0103-5053.20190061; details: cited from earlier work
[3] = test system: multidrug-resistant K1 strain; set-up: method as in doi:10.21577/0103-5053.20190061; details: cited from earlier work
[4] = test system: hepatic stage of P. berghei; assay: In vitro activity against P. berghei hepatic stages (luciferase-expressing sporozoites in Huh-7 cells, bioluminescence); type: cell-based, Plasmodium berghei; set-up: INFECTION (IC50 determination): unit not given here; details: for activity at 1 µM / activity at 10 µM / IC50: Plasmodium berghei; for activity at 1 µM / activity at 10 µM / INFECTION (IC50 determination): DMSO = 100; for activity at 1 µM / activity at 10 µM: read-out: INFECTION Ø screening; for activity against P. berghei hepatic stages: screening at 10 and 1 µM / IC50 determination
Method in brief: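 Huh-7 hepatoma cells pretreated with compounds 1 h, then infected with luciferase-expressing P. berghei sporozoites (1 × 10^4/well, 1:1 ratio) and incubated at 37 °C.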

Huh-7 cell line = assay: Huh-7 cell confluency by alamarBlue assay during hepatic-stage test; type: cell-based
Method in brief: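 Huh-7 human hepatoma cells pre-treated with compound in infection medium 1 h before luciferase-expressing P. berghei sporozoites were added (1:1, 1 × 10^4 per well), then incubated 46 h at 37 °C, 5% CO2. Confluency assessed indirectly by alamarBlue; IC50 from nonlinear-regression fit of normalized dose-response curves.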

[5] = test system: P. falciparum NF54 ring-stage synchronized cultures; assay: In vitro activity against P. falciparum blood stages (flow cytometry, SYBR green I); type: cell-based, Plasmodium falciparum; details: Control = 7.76333, 48 h
Procedure: Activity against the blood stage of P. falciparum infection was assessed by flow cytometry analysis following the incubation of either test compounds or the drug vehicle (DMSO) with ring-stage synchronized parasite cultures, as previously described. Stock solutions of the test compounds, as well as of the positive control compound chloroquine, were prepared in DMSO and diluted to test concentrations in complete malaria culture medium (CMCM), i.e., 1640 RPMI medium supplemented with 25 mM HEPES, 2.4 mM L-glutamine, 50 µg/mL gentamicin, 0.5% w/v Albumax, 11 mM glucose, 1.47 mM hypoxanthine, and 37.3 mM NaHCO3. Samples at tested concentration were then incubated with ring-stage synchronized cultures of P. falciparum NF54 at 2.5% hematocrit and at approximately 1% parasitemia in 96-well plates at 37 °C in a 5% CO2 and 5% O2 atmosphere. Forty-eight hours post incubation, parasite load was assessed by flow cytometry, upon staining with the DNA-specific dye SYBR green I. Approximately 100,000 events were analyzed in each flow cytometry measurement.

[6] = Cytotoxicity assessment in vitro (MTT assay); type: cell-based; details: human
Method in brief: (§1)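 Human HepG2 hepatocellular carcinoma cells (passage 20–25) were treated with compound at 10 μM in triplicate for 24 h at 37 °C, 5% CO2. Viability was then measured by MTT: 3 h incubation, formazan dissolved in DMSO, absorbance read at 570 nm.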

HepG2 cells = assay: Cytotoxicity assessment in vitro (MTT assay); type: cell-based
Method in brief: as §1

[7] = hepatic stage, Huh-7 cells, parasite load 48 h post-infection, read-out: IC50 P. berghei
[8] = Huh-7, mean, unit (Table 1: µM), read-out: Antiplasmodial activity - Ø IC50
[9] = Huh-7, replicate 1, unit (Table 1: µM), read-out: Antiplasmodial activity - IC50 determination, 1. measurement
[10] = Huh-7, replicate 2, unit (Table 1: µM), read-out: Antiplasmodial activity - IC50 determination, 2. measurement
[11] = Huh-7, replicate 3, unit (Table 1: µM), read-out: Antiplasmodial activity - IC50 determination, 3. measurement
[12] = c = 10 µM, 24 h, MTT, read-out: HepG2 % of cell viability compared to non-treated control (100%)

| SMILES | activity at 1 µM ([4]; Huh-7, 48 h) [%] | activity at 10 µM ([4]; Huh-7, 48 h) [%] | IC50 [4, 7] [µM] | CELL CONFLUENCY Ø screening (Huh-7 cell line; human, 46 h, 1 µM, pH 7) | CELL CONFLUENCY Ø screening (Huh-7 cell line; human, 46 h, 10 µM, pH 7) | Ø screening, blood stage parasite load ([5]; at 10 nM) | Ø screening, blood stage parasite load ([5]; at 500 nM) | Ø screening, blood stage parasite load ([5]; at 100 nm) | viability at 24 h, 10 µM [6] [%] | 1. screening of cytotoxic potential, HepG2 cell line (HepG2 cells; human, 24 h, 10 µM) | 2. screening of cytotoxic potential, HepG2 cell line (HepG2 cells; human, 24 h, 10 µM) | 3. screening of cytotoxic potential, HepG2 cell line (HepG2 cells; human, 24 h, 10 µM) | Ø screening, HepG2 (sheet Graphs) (HepG2 cells; human, 24 h, 10 µM) | IC50 [4, 8] [µM] | IC50 [4, 9] [µM] | IC50 [4, 10] [µM] | IC50 [4, 11] [µM] | other results |
| --- | --- | --- | --- | --- | --- | --- | --- | --- | --- | --- | --- | --- | --- | --- | --- | --- | --- | --- |
| CC(=O)O[C@@H]1CC=C2CCN3Cc4cc5c(cc4[C@H]1[C@@H]23)OCO5 [compound 5, acetylcaranine] | – | – | – | – | – | – | – | – | – | – | – | – | – | – | – | – | – | IC50 [1]: 3.5 ± 0.3 µM |
| COC1C=CC23c4cc5c(cc4CN(CC2O)C3C1)OCO5 (stereo not drawn) [compound 29, haemanthamine] | – | – | – | – | – | – | – | – | – | – | – | – | – | – | – | – | – | antiplasmodial effect (words) (Plasmodium): without notable activity; antiplasmodial effect (words) (Plasmodium; listed as haemanthamine): neither haemanthamine nor ambelline showed inhibition |
| O[C@H]1[C@H]2c3cc4c(cc3CN3CCC(=C[C@@H]1O)[C@H]23)OCO4 [compound 6, lycorine] | – | – | – | – | – | – | – | – | – | – | – | – | – | – | – | – | – | IC50 [2]: 2.5 µM; IC50 [3]: 3.1 µM |
| COc1c2c(cc3c1OCO3)[C@]13C=C[C@H](OC)C[C@H]1[N@](C2)C[C@H]3OC(C)=O [28a, 11-O-Acetylambelline] | 79.5 | 64.4 | > 10 | 94.22 | 93.33 | 7.817 | 11.5 | 10.27 | 107 ± 3 | 104.06 | 105.26 | 110.57 | 106.6 | – | – | – | – | – |
| COc1c2c(cc3c1OCO3)[C@]13C=C[C@H](OC)C[C@H]1N(C2)C[C@H]3OC(=O)c1cc(C)cc(C)c1 [28h, 11-O-(3,5-Dimethylbenzoyl)ambelline] | 8.82 | 0.852 | 0.1 ± 0.018 | – | – | 8.137 | 6.735 | 6.763 | – | – | – | – | – | 0.1 | 0.0992 | 0.0828 | 0.118 | CELL CONFLUENCY Ø screening (Huh-7 cell line; at 1 μM, DMSO = 100, in % (unit assumed)): 93.78; CELL CONFLUENCY Ø screening (Huh-7 cell line; at 10 μM, DMSO = 100, in % (unit assumed)): 54.73; viability at 24 h, 10 µM [6, 12]: 74 ± 13%; Ø screening, HepG2 (sheet Graphs) (HepG2 cells; c = 10 μM, DMSO = 100, in %): 74.24; 1. screening of cytotoxic potential, HepG2 cell line (HepG2 cells; c = 10 μM, replicate 1, in %): 61.45; 2. screening of cytotoxic potential, HepG2 cell line (HepG2 cells; c = 10 μM, replicate 2, in %): 88.22; 3. screening of cytotoxic potential, HepG2 cell line (HepG2 cells; c = 10 μM, replicate 3, in %): 73.05 |
| COc1cc(OC)cc(C(=O)O[C@@H]2CN3Cc4c(cc5c(c4OC)OCO5)[C@@]24C=C[C@H](OC)C[C@@H]34)c1 [28m, 11-O-(3,5-Dimethoxybenzoyl)ambelline] | 4.97 | 0.465 | 0.048 ± 0.014 | 75.47 | 66.23 | 7.527 | 6.707 | 7.237 | 87 ± 6 | 83.99 | 94 | 84.39 | 87.46 | 0.0483 | 0.0413 | 0.0646 | 0.0389 | INFECTION (IC50 determination) ([4]; at 0.0001 µM): 91.9843; INFECTION (IC50 determination) ([4]; at 0.001 µM): 94.6285; INFECTION (IC50 determination) ([4]; at 0.01 µM): 82.6124; INFECTION (IC50 determination) ([4]; at 0.05 µM): 46.9733; INFECTION (IC50 determination) ([4]; at 0.1 µM): 24.6613; INFECTION (IC50 determination) ([4]; at 0.5 µM): 8.963; Huh-7 cell viability (Huh-7 cell line): cell viability was not affected at antiplasmodial-active concentrations; CELL CONFLUENCY (IC50 determination) (Huh-7 cell line; human, 46 h, 0.0001 µM, pH 7): 108.569; CELL CONFLUENCY (IC50 determination) (Huh-7 cell line; human, 46 h, 0.001 µM, pH 7): 114.348; CELL CONFLUENCY (IC50 determination) (Huh-7 cell line; human, 46 h, 0.01 µM, pH 7): 105.456; CELL CONFLUENCY (IC50 determination) (Huh-7 cell line; human, 46 h, 0.05 µM, pH 7): 107.735; CELL CONFLUENCY (IC50 determination) (Huh-7 cell line; human, 46 h, 0.1 µM, pH 7): 107.6; CELL CONFLUENCY (IC50 determination) (Huh-7 cell line; human, 46 h, 0.5 µM, pH 7): 97.6188 |
| COc1c2c(cc3c1OCO3)[C@]13C=C[C@H](OC)C[C@H]1N(C2)C[C@H]3OC(=O)c1cccc([N+](=O)[O-])c1 [28p, 11-O-(3-Nitrobenzoyl)ambelline] | 48.1 | 1.45 | 1.53 ± 0.22 | 87.05 | 79.58 | 4.593 | 4.517 | 4.83 | 75 ± 6 | 70.36 | 72.83 | 81.93 | 75.04 | 1.53 | 1.46 | 1.36 | 1.78 | – |
| COc1c2c(cc3c1OCO3)[C@]13C=C[C@H](OC)C[C@H]1N(C2)C[C@@H]3O [compound 28, ambelline] | – | – | – | – | – | – | – | – | – | – | – | – | – | – | – | – | – | IC50 ([4]; Huh-7, 48 h, read-out: IC50 P. berghei): > 10 µM; activity against P. berghei hepatic stages [4]: neither haemanthamine nor ambelline showed inhibition; viability at 24 h, 10 µM [6, 12]: 50 ± 1%; Ø screening, HepG2 (sheet Graphs) (HepG2 cells; c = 10 μM, DMSO = 100, in %): 49.86; 1. screening of cytotoxic potential, HepG2 cell line (HepG2 cells; c = 10 μM, replicate 1, in %): 49.93; 2. screening of cytotoxic potential, HepG2 cell line (HepG2 cells; c = 10 μM, replicate 2, in %): 48.36; 3. screening of cytotoxic potential, HepG2 cell line (HepG2 cells; c = 10 μM, replicate 3, in %): 51.3; IC50 [1]: 7.3 ± 0.3 µM |
| COc1c2c(cc3c1OCO3)[C@]13C=C[C@H](OC)C[C@H]1N(C2)C[C@H]3OC(=O)c1ccc([N+](=O)[O-])cc1 [28q, 11-O-(4-Nitrobenzoyl)ambelline] | 64.6 | 3.9 | 1.2 ± 0.18 | 102 | 102.2 | 6.94 | 4.487 | 4.835 | 53 ± 6 | 48.34 | 59.99 | 49.2 | 52.51 | 1.2 | 1.17 | 1.03 | 1.39 | – |
| COc1c2c(cc3c1OCO3)[C@]13C=C[C@H](OC)C[C@H]1N(C2)C[C@H]3OC(=O)c1ccc([N+](=O)[O-])cc1Cl [28s, 11-O-(2-Chloro-4-nitrobenzoyl)ambelline] | 48.2 | 1.4 | – | 95.79 | 77.1 | 7.46 | 7.523 | 7.653 | 54 ± 6 | 55.56 | 46.62 | 58.6 | 53.59 | – | – | – | – | activity against P. berghei hepatic stages [4]: not dose-dependent |
